Measured values from US9309201B2, “Process for preparating ivabradine hydrochloride form IV and methods of treatment of disease using ivabradine hydrochloride form IV” (URQUIMA, S.A., priority 2011, dated 2016).
Counter-ions that a name gives are not always drawn.

Assay: Check for transformation of crystalline Form IV after tablet manufacture
Format: physicochemical
Procedure: All the components, with the exception of magnesium stearate and silica colloidal anhydrous, were mixed. Finally, silica colloidal anhydrous and magnesium stearate were added and mixed. The blend was compressed in an excentric tabletting machine.
All the components with the exception of magnesium stearate and silica colloidal anhydrous were mixed and granulated using ethanol as a granulating solvent. Then a wet calibration of the granules was performed. The obtained granules were dried followed by a dry calibration of the granules. Thereafter, silica colloidal anhydrous and magnesium stearate were added and mixed. The lubricated granulate was compressed in an eccentric tabletting machine.
Finally, tablets were coated using conventional coating agents until a weight increase of approximately 3%.

transformation of the crystalline Form IV in tablets (Example 26 tablets, blend compressed directly in an excentric tabletting machine): absence of any transformation
transformation of the crystalline Form IV in film-coated tablets (Example 27 tablets, wet granulation with ethanol, drying, compression, coating to approximately 3% weight increase): absence of any transformation
SMILES: COc1cc2c(cc1OC)CC(=O)N(CCCN(C)C[C@H]1Cc3cc(OC)c(OC)cc31)CC2 [Form IV of ivabradine hydrochloride, ivabradine hydrochloride]
